Results as given in patent US10617636B2, “Cannabis infused sweeteners and elixirs” (SRE Wellness, Inc., priority 2016, dated 2020).

Test: Emulsification of coconut oil and water with different emulsifiers (Example 2)
Assay type: physicochemical
Conditions: coconut oils solid and liquid (MCT); emulsifying agent tested
Method: Several experiments were run using several different emulsifiers and combinations of different coconut oils: solid and liquid (MCT). (Note: liquid MCT is coconut oil that has medium chain triglyceride).
The method used to produce the invention emulsifications, included first heating extra virgin organic coconut oil to between 120 to 220 degrees F. CO2 extracted cannabis oil is added. In a high speed blender (or similar machine) coconut water is added to the coconut fat (oil) to ensure emulsification. While blending, xanthan gum powder is added in an amount between 0.15% and 0.45% of the total volume of finished product. Percentages used herein are on a dry weight basis and are based on the total volume of the finished product. The blender is run at high speed for between 30 seconds and 2.

With cyclodextrin the “emulsification of the oil and water (result in words)” value was “good results”.
